Test results published in patent US12295963B2, “Treating pain associated with diabetic peripheral neuropathy” (MEDICON PHARMACEUTICALS, INC., priority 2021, dated 2025).
Read-outs that look alike come from different tables or passages of the source.

Assays:
[1] = system: mechanical allodynia in STZ-induced DPN rats; test: Prevention of neuropathic pain in STZ-induced rat model of DPN, paw withdrawal threshold (von Frey filaments); format: in vivo; conditions: prevention protocol; for von Frey, gm mean ± SEM (PWT): PS 8% hydrogel or sulindac 0.7% hydrogel topical 3 times a day from day -2 to day 28, lidocaine 5% cream once 30 min before PWT, PWT on day 28; for effect on PWT compared to vehicle (prevention study): day 28, result in words
From the text: DPN was induced via chemically-induced increases in blood glucose in rats, using streptozotocin (STZ).
The animal model corresponds to that used for Example 1, but using a prevention protocol. As in Example 1, the outcome measure, determining the effect of the treatment on the prevention of mechanical allodynia, was the PWT test, using von Frey filaments. The measurements were taken at day −3, before treatment or induction of neuropathic pain associated with DPN, and again at the end of the study period (day 28).
The rats were randomised into treatment groups as follows, all having an average body weight of about 225 g. • 1. Group 1: naïve rats (n=6) • 2. Group 2: STZ only (n=8) • 3. Group 3: STZ plus vehicle (n=8) • 4. Group 4: STZ plus PS 8% (n=8) • 5. […] Group 6: STZ plus lidocaine cream 5% (n=8)
Each treatment group was subjected to a PWT assessment at day −3 in order to determine the baseline of mechanical allodynia. […] For those rats in the lidocaine treatment group, lidocaine cream was applied only once to both hind paws of the rats 30 min before the final PWT measurement on day 28. On day 0, neuropathic pain associated with DPN was induced with the administration of STZ, and the blood glucose was checked on day 3. Four weeks after the administration of STZ, to provide sufficient time to allow the neuropathic pain associated with DPN (manifested as mechanical allodynia) to develop (see the STZ only group in FIG. 5), the rats were subjected to the paw withdrawal threshold test.

[2] = system: mechanical allodynia in STZ-induced DPN rats; test: Treatment of neuropathic pain in STZ-induced rat model of DPN, paw withdrawal threshold (von Frey filaments); format: in vivo, Sprague-Dawley rats; conditions: for effect on PWT compared to vehicle (treatment study): established DPN, result in words
Procedure: DPN was induced via chemically-induced increases in blood glucose in rats, using streptozotocin (STZ). This is a well-established model for DPN (see Morrow, Current Protocols in Neuroscience (2004); 29(1): 1-11), in which the STZ, an antibiotic extract from Streptomyces acromogenes, selectively damages the β cells of the pancreas.
Sprague-Dawley rats were fasted for 4-6 hours before being injected intraperitoneally with 45 mg/kg STZ. This was performed for all experimental groups, except the naïve group. In order to prevent hypoglycaemic death, rats received 10% sucrose water as the sole water source for the first 48 hours after injection. In order to ensure only those rats considered diabetic (i.e., having non-fasting plasma glucose levels of >250 mg/dL) were included in the study, blood glucose was measured at 72 hours after the STZ injection.
This delay between STZ injection and treatment allows the establishment of chronic pain (allodynia) associated with peripheral and central sensitisation. PS (as an 8% hydrogel) or vehicle control were administered topically to both hind paws of the rats 3 times a day for 3 weeks starting at week 4 after STZ injection. […] 5% lidocaine cream (a positive control) was applied only once to both hind paws of the rats 30 minutes before measurement of PWT.
The rats were split into 8 study groups, with those in the experimental groups (1-4) having an average body weight of about 225 g, and those in the control groups (5-8) having an average body weight of about 335 g, as follows: • 1. Group 1: naïve rats (n=5) • 2. Group 2: STZ only (n=6) • 3. Group 3: STZ plus vehicle (n=6) • 4. Group 4: STZ plus PS (8% hydrogel) (n=7) • 5. Group 5: STZ plus oral vehicle (n=8) • 6. […] Group 7: STZ plus 5% lidocaine cream (n=8) • 8.
In order to determine the outcome of the treatment, mechanical allodynia was measured using the well-established method of von Frey filaments. In particular, a simplified up-down method for estimating paw withdrawal threshold (PWT) using von Frey filaments was used (as described in Bonin et al., Molecular Pain (2014); 10(26):1-10)). The results of the PWT test are expressed as force applied (gm).

[3] = Pharmacokinetics and biodistribution of PS and its metabolites after topical administration to hind paws; conditions: for AUC0-24h of PS / Tmax of PS / T1/2 of PS / Cmax: 50 μl per hind paw; for Cmax: read-out: Cmax of PS, mean ± SEM
Procedure: PS 8% ointment was applied topically to each hind paw (50 μl per paw) with gentle rubbing. At 0.5, 1, 3, 5, 12, 18, and 24 h, mice (n=4-5 mice/time point) were euthanized with CO2 inhalation. Blood was drawn immediately after death. Tissues, including paw skin, paw muscle, leg muscle, the sciatic nerve and lumbar DRG bilaterally were dissected quickly, immediately frozen in liquid nitrogen and stored at −80° C. until analyzed.
Following addition of acetonitrile (twice the volume of the homogenate), the mixture was sonicated for 10 min, centrifuged at 13,200 rpm for 15 min, and analyzed by HPLC, as reported (Wen et al., 2019).
Since the metabolism and PK/biodistribution of PS vary depending on its route of administration, we studied both in normal mice in which PS was administered topically to their hind paws, with particular attention to the sciatic nerve and the dorsal root ganglia (DRG) that are affected in DPN.

[4] = dorsal root ganglia (DRG), normal mice, PS 8% ointment topical
[5] = leg muscle, normal mice, PS 8% ointment topical
[6] = paw muscle, normal mice, PS 8% ointment topical
[7] = paw skin, normal mice, PS 8% ointment topical
[8] = sciatic nerve (SN), normal mice, PS 8% ointment topical
[9] = treatment protocol from week 4, sulindac 0.7% hydrogel topical 3 times a day for 1 week (PWT week 5), lidocaine 5% cream once 30 min before PWT, pregabalin 10 mg/kg oral once 1 h before PWT

phosphosulindac [PS]
von Frey, gm mean ± SEM (PWT) [1]: 33.1 ± 1.6 gm
effect on PWT compared to vehicle (prevention study) [1]: significant increase in PWT compared to vehicle
effect on PWT compared to vehicle (treatment study) [2]: significant increase in PWT compared to vehicle and STZ
PWT, gm Mean ± SEM ([2]; treatment protocol, PS 8% hydrogel topically to both hind paws 3 times a day for 3 weeks from week 4 after STZ, PWT at week 7, 30 min after last treatment): 22.5 ± 2.20 gm
PS in the systemic circulation ([3]; blood, normal mice, PS 8% ointment topical, limit of quantitation 0.1 μM): no PS was detected
AUC0-24h of PS [3, 4]: 4.5 µM·h
Tmax of PS [3, 4]: 18 h
AUC0-24h of PS [3, 5]: 171.6 µM·h
T1/2 of PS [3, 5]: 20.6 h
Tmax of PS [3, 5]: 0.5 h
Tmax of PS in all tissues with the exception of DRG ([3]; normal mice, PS 8% ointment topical): 0.5 h
AUC0-24h of PS [3, 6]: 411.2 µM·h
T1/2 of PS [3, 6]: 11.4 h
Tmax of PS [3, 6]: 0.5 h
AUC0-24h of PS [3, 7]: 1,609.8 μM · h
T1/2 of PS [3, 7]: 16.1 h
Tmax of PS [3, 7]: 0.5 h
t1/2 of PS in the skin and the muscles ([3]; range over paw skin, paw muscle, leg muscle, normal mice, PS 8% ointment topical): 11.4 to 20.6 h
Cmax [3, 4]: 0.3 ± 0.1 µM
Cmax [3, 5]: 35 ± 3.6 µM
Cmax [3, 6]: 102 ± 4.6 µM
Cmax [3, 7]: 195 ± 5.3 µM
Cmax [3, 8]: 0.9 ± 0.1 µM
AUC0-24h of PS [3, 8]: 12.0 µM·h
T1/2 of PS [3, 8]: 57.4 h
Tmax of PS [3, 8]: 0.5 h

CC1=C(CC(=O)O)c2cc(F)ccc2/C1=C\c1ccc(S(C)(=O)=O)cc1 [sulindac sulfone]
detection as metabolite of PS ([3]; mouse tissues and blood after PS 8% ointment topical, HPLC, limit of quantitation 0.05 μM): detected

CC(C)C[C@H](CN)CC(=O)O [pregabalin]
effect on PWT compared to vehicle (treatment study) [2]: significant increases in PWT compared to vehicle

CC1=C(CC(=O)O)c2cc(F)ccc2/C1=C\c1ccc([S+](C)[O-])cc1 (stereo not drawn) [sulindac]
von Frey, gm mean ± SEM (PWT) [1]: 27.7 ± 1.4 gm
effect on PWT compared to vehicle (prevention study) [1]: no significant effect on PWT compared to the vehicle
effect on PWT compared to vehicle (treatment study) [2]: failed to suppress the reduced PWT caused by STZ
PWT, gm Mean ± SEM [2, 9]: 23.2 ± 2.6 gm

CCN(CC)CC(=O)Nc1c(C)cccc1C [lidocaine]
von Frey, gm mean ± SEM (PWT) [1]: 34.3 ± 1.6 gm
effect on PWT compared to vehicle (prevention study) [1]: significantly increased the PWT compared to vehicle
effect on PWT compared to vehicle (treatment study) [2]: significant increases in PWT compared to vehicle
PWT, gm Mean ± SEM [2, 9]: 26.0 ± 1.8 gm
